BindingDB's records for patent US20250197396 (Lieber Institute, 2025)
pIC50: −log10 of the molar value.

Molecular target: Inositol hexakisphosphate kinase 1 (Homo sapiens, UniProt Q92551)
Test: Not found
Description: Not found

Chain of Inositol hexakisphosphate kinase 1 (Q92551 whole entry): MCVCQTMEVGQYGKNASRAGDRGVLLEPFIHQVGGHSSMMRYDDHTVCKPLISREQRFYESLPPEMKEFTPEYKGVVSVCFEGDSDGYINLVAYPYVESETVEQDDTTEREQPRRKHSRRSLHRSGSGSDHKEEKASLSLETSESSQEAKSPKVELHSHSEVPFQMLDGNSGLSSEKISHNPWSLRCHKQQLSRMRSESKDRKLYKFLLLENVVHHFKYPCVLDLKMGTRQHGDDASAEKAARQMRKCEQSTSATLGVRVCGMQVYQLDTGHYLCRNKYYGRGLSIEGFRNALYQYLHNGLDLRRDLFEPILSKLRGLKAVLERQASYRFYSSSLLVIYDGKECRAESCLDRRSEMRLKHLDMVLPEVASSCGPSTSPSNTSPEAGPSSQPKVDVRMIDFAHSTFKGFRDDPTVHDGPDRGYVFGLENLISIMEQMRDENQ

O=C(O)c1ccc2c(c1)C1(CCN(Cc3ncc(Cl)cc3Cl)CC1)C(=O)N2 [US20250197396, Compound 18a]
pIC50: > 6.52
